The results in this text go back to the NIST ThermoML archive (doi:10.1021/je060138i).

Numbers after ± are expanded uncertainties.

For series [1] the following is noted: for mass density: 293.15 K, 101.33 kPa, Liquid.
The nature of series [2]: refractive index (Na D-line) (dimensionless). As to conditions: 293.15 K; 101.33 kPa; Liquid; Standard Abbe refractometry.

Usually mass density stands for the mass of a sample divided by its volume. A word on the refractive index: it is a measure of how strongly the sample bends light. As to `CC#N` [acetonitrile], in series [1], the mass density turned out to be 783 ± 1 kg/m3. Moreover, in series [2], the refractive index is listed as 1.343 ± 0.0007.

Consider `O=P1(O)OCC2(CO1)COP(=O)(O)OC2` (stereo unspecified), for which the Normal melting temperature in series [1] (Crystal, visual observation) was 310.50 ± 4.4 °C.

`CC(=O)O` [acetic acid]: in series [1], the mass density came out at 1050 ± 1 kg/m3. Also, in series [2], the refractive index came out at 1.3718 ± 0.0008. In the case of `CC(C)=O` [acetone], the mass density in series [1] turned out to be 790 ± 1 kg/m3. The refractive index in series [2] is reported as 1.359 ± 0.0007. Taken in the same sequence, the figures for `CCOC(C)=O` [ethyl acetate] were 899 ± 1 kg/m3 and 1.3719 ± 0.0007.

Regarding `ClCCl` [dichloromethane], the mass density in series [1] was determined as 1321 ± 1 kg/m3. For the same compound, the refractive index in series [2] is reported as 1.4237 ± 0.0007.
